Experimental data published in patent US6211244A, “Calcium receptor-active compounds” (priority 1995, dated 2001).
Like-named read-outs stand apart in the source and are kept apart here. Values belong to the molecule of their own block, whether it stands above or below them.

Biological target: T1, human calcium receptor (Homo sapiens, UniProt P41180, R990G)
T1 construct: expressed in transfected cells; host or cells: HEK 293
T1 sequence (P41180 20-1078 R990G): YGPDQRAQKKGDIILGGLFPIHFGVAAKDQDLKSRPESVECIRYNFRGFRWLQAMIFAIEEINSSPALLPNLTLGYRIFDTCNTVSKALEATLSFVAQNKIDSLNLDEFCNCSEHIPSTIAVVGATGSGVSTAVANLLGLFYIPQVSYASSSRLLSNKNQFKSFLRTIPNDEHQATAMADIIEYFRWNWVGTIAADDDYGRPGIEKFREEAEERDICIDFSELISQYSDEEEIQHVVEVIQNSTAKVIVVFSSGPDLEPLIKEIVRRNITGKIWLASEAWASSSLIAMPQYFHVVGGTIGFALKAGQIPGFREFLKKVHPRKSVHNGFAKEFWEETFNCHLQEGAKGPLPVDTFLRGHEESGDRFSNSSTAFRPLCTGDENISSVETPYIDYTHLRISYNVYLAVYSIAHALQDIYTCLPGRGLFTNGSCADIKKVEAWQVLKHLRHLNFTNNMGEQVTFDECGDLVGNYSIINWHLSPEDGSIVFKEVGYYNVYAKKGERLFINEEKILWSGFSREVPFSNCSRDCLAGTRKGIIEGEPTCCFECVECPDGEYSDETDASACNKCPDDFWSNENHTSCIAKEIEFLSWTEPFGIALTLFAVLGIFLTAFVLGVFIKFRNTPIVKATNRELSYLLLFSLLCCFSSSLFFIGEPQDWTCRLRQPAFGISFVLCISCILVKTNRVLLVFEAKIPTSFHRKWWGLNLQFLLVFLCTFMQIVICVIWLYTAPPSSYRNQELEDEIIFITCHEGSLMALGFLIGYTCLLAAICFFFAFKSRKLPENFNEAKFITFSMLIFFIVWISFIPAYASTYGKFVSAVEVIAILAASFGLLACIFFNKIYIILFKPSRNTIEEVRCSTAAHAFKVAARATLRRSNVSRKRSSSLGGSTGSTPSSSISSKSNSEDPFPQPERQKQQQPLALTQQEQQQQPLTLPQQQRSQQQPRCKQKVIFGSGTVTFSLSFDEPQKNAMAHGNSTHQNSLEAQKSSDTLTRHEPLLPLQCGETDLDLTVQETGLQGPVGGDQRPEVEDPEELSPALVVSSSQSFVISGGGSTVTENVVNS
Assay: increases in [Ca^2+ ]i in HEK-293 cells expressing the human calcium receptor (fura-2 loaded HEK 293/pHuPCaR4.0 cells), % activity
Type: cell-based
Details: for activity at […]: HEK293

SMILES: COc1cccc(C(C)NCc2ccc3ccccc3c2)c1 (stereo not drawn) [Compound 10P]
% activity (33 ng/mL): 74% | % activity (330 ng/mL): 102%

SMILES: CC(NC(C)c1cccc2ccccc12)c1ccc2c(c1)-c1ccccc1-2 (stereo not drawn) [Compound 10Q]
% activity (33 ng/mL): 84% | % activity (330 ng/mL): 100% | % activity (3300 ng/mL): 103%

SMILES: CC(NC(C)c1cccc2ccccc12)c1ccc2c(c1)-c1ccccc1-2 (stereo not drawn) [Compound 10R]
% activity (33 ng/mL): 42% | % activity (330 ng/mL): 82%

SMILES: CC(NC1CC1c1ccccc1)c1cccc2ccccc12 (stereo not drawn) [Compound 10V]
% activity (33 ng/mL): 62% | % activity (330 ng/mL): 99%

SMILES: C=CCOc1cccc([C@@H](C)NCc2ccc3ccccc3c2)c1 [Compound 10Z]
% activity (33 ng/mL): 51% | % activity (330 ng/mL): 96%

SMILES: CCOC(=O)COc1cccc([C@@H](C)NCc2ccc3ccccc3c2)c1 [Compound 11D]
% activity (33 ng/mL): 50% | % activity (330 ng/mL): 96%

SMILES: COc1cccc([C@@H](C)NCc2cccc(OCc3ccccc3)c2)c1 [Compound 11W]
% activity (33 ng/mL): 44% | % activity (330 ng/mL): 81%

SMILES: CC(C)c1ccc(CN[C@H](C)c2cccc3ccccc23)cc1.Cl [Compound 11X, N-(4-Isopropylbenzyl)-(R)-1-(1-naphthyl)ethylamine hydrochloride]
% activity (33 ng/mL): 76% | % activity (330 ng/mL): 100%

% activity (33 ng/mL): 61% | % activity (330 ng/mL): 103%
SMILES: COc1cccc([C@@H](C)NCc2ccc(C(C)C)cc2)c1 [Compound 11Y]

SMILES: COc1cccc([C@@H](C)NCC=Cc2ccc(C)cc2)c1 [Compound 12B, (R)-N-[3-(4-methylphenyl)prop-2-enyl]-1-(3-methoxyphenyl)ethylamine]
% activity (33 ng/mL): 56% | % activity (330 ng/mL): 110% | % activity (3300 ng/mL): 130%

SMILES: COc1cccc([C@@H](C)NCC=Cc2ccccc2C)c1 [Compound 12C, (R)-N-[3-(2-methylphenyl)prop-2-enyl]-1-(3-methoxyphenyl)ethylamine]
% activity (33 ng/mL): 98% | % activity (330 ng/mL): 125% | % activity (3300 ng/mL): 134%

SMILES: COc1cccc([C@@H](C)NCC=Cc2c(C)cc(C)cc2C)c1 [Compound 12D, (R)-N-[3-(2,4,6-trimethylphenyl)prop-2-enyl]-1-(3-methoxyphenyl)ethylamine]
% activity (33 ng/mL): 52% | % activity (330 ng/mL): 109% | % activity (3300 ng/mL): 128%

SMILES: COc1cccc([C@@H](C)NCC=Cc2ccc(C(C)C)cc2)c1 [Compound 12E, (R)-N-[3-(4-isopropylphenyl)prop-2-enyl]-1-(3-methoxyphenyl)ethylamine]
% activity (33 ng/mL): 73% | % activity (330 ng/mL): 121% | % activity (3300 ng/mL): 117%

SMILES: COc1cccc([C@@H](C)NCC=Cc2ccc(C)cc2C)c1 [Compound 12F, (R)-N-[3-(2,4-dimethylphenyl)prop-2-enyl]-1-(3-methoxyphenyl)ethylamine]
% activity (33 ng/mL): 101% | % activity (330 ng/mL): 110% | % activity (3300 ng/mL): 118%

SMILES: COc1cccc([C@@H](C)NCC=Cc2cccc(C)c2)c1 [Compound 12G, (R)-N-[3-(3-methylphenyl)prop-2-enyl]-1-(3-methoxyphenyl)ethylamine]
% activity (33 ng/mL): 81% | % activity (330 ng/mL): 139% | % activity (3300 ng/mL): 139%

SMILES: COc1cccc([C@@H](C)NCc2cccc(Oc3ccccc3)c2)c1 [Compound 12H]
% activity (33 ng/mL): 94% | % activity (330 ng/mL): 115% | % activity (3300 ng/mL): 114%

% activity (33 ng/mL): 93% | % activity (330 ng/mL): 111% | % activity (3300 ng/mL): 115%
SMILES: C[C@@H](NCc1ccc(OCc2ccccc2)cc1)c1cccc2ccccc12 [Compound 12I]

% activity (33 ng/mL): 113% | % activity (330 ng/mL): 130% | % activity (3300 ng/mL): 131%
SMILES: CC(NCc1cccc(OCc2ccccc2)c1)c1cccc2ccccc12 (stereo not drawn) [Compound 12J]

SMILES: C[C@@H](NCc1ccccc1)c1cccc2ccccc12 [Compound 12L]
% activity: 45 | % activity (330 ng/mL): 88%

SMILES: COc1cccc(C(C)NCc2ccc(C=Cc3ccccc3)cc2)c1 (stereo not drawn) [Compound 12M]
% activity (33 ng/mL): 56% | % activity (330 ng/mL): 86% | % activity (3300 ng/mL): 98%

SMILES: C[C@@H](NCc1ccc(C(C)(C)c2ccccc2)cc1)c1cccc2ccccc12 [Compound 12N]
% activity (33 ng/mL): 102% | % activity (330 ng/mL): 106% | % activity (3300 ng/mL): 115%

SMILES: COc1cccc([C@@H](C)NCc2ccc(C(C)(C)c3ccccc3)cc2)c1 [Compound 12O]
% activity (33 ng/mL): 94% | % activity (330 ng/mL): 117% | % activity (3300 ng/mL): 110%

SMILES: COc1cccc([C@@H](C)NCCCc2ccc(C(C)C)cc2)c1 [Compound 12Y]
% activity (33 ng/mL): 46% | % activity (330 ng/mL): 80%

SMILES: CC(NC(C)c1ccc(C(C)(C)C)cc1)c1ccccc1 (stereo not drawn) [Compound 13E]
% activity (33 ng/mL): 40% | % activity (330 ng/mL): 94% | % activity (3300 ng/mL): 123%

SMILES: CC(N[C@H](C)c1ccc2ccccc2c1)c1ccc(C(C)(C)C)cc1 (stereo partly drawn) [Compound 13F]
% activity (33 ng/mL): 85% | % activity (330 ng/mL): 122% | % activity (3300 ng/mL): 125%

SMILES: C[C@@H](NCc1cccc(Cl)c1)c1cccc2ccccc12 [Compound 13M]
% activity (33 ng/mL): 66% | % activity (330 ng/mL): 92%

SMILES: CCc1ccc(CN[C@H](C)c2cccc3ccccc23)cc1 [Compound 13N]
% activity (33 ng/mL): 88% | % activity (330 ng/mL): 114%

SMILES: C[C@@H](NCc1ccc(Cl)cc1)c1cccc2ccccc12 [Compound 13O]
% activity (33 ng/mL): 94% | % activity (330 ng/mL): 115%

% activity (33 ng/mL): 83% | % activity (330 ng/mL): 110%
SMILES: Cc1ccc(CN[C@H](C)c2cccc3ccccc23)cc1 [Compound 13P]

SMILES: C[C@@H](NCc1ccc(Cl)c(Cl)c1)c1cccc2ccccc12 [Compound 13R]
% activity (33 ng/mL): 98% | % activity (330 ng/mL): 132%

SMILES: C[C@@H](NCc1ccc(F)cc1)c1cccc2ccccc12 [Compound 13T]
% activity (33 ng/mL): 53% | % activity (330 ng/mL): 90%

SMILES: COc1ccc(CN[C@H](C)c2cccc3ccccc23)cc1 [Compound 13U]
% activity (33 ng/mL): 79% | % activity (330 ng/mL): 108%

% activity (33 ng/mL): 79% | % activity (330 ng/mL): 110%
SMILES: C[C@@H](NCc1ccc(N(C)C)cc1)c1cccc2ccccc12 [Compound 13V]

% activity (33 ng/mL): 71% | % activity (330 ng/mL): 109%
SMILES: C[C@@H](NCc1ccc([N+](=O)[O-])cc1)c1cccc2ccccc12 [Compound 13W]

SMILES: COc1cccc([C@@H](C)NC[C@@H](C)c2ccc(CC(C)C)cc2)c1 [Compound 13Y]
% activity (33 ng/mL): 2% | % activity (330 ng/mL): 47% | % activity (3300 ng/mL): 106%

SMILES: CC(C)Cc1ccc(C(C)CNC(C)c2cccc3ccccc23)cc1 (stereo not drawn) [Compound 13Z]
% activity (33 ng/mL): 22% | % activity (330 ng/mL): 54% | % activity (3300 ng/mL): 93%

SMILES: Cc1ccc(CNC(C)c2ccc(C(C)(C)C)cc2)cc1 (stereo not drawn) [Compound 14B]
% activity (33 ng/mL): 11% | % activity (330 ng/mL): 55% | % activity (3300 ng/mL): 75%

SMILES: CC(NCCc1ccccc1)c1ccc(C(C)(C)C)cc1 (stereo not drawn) [Compound 14H]
% activity (33 ng/mL): 5% | % activity (330 ng/mL): 49% | % activity (3300 ng/mL): 112%

SMILES: CCN(CCCc1ccccc1)C(C)c1ccc(C(C)(C)C)cc1 (stereo not drawn) [Compound 14I]
% activity: 45 | % activity (33 ng/mL): 11% | % activity (3300 ng/mL): 80%

SMILES: CC(c1ccc(C(C)(C)C)cc1)N(C)CCCc1ccccc1 (stereo not drawn) [Compound 14J]
% activity (33 ng/mL): 6% | % activity (330 ng/mL): 41% | % activity (3300 ng/mL): 55%

SMILES: CC(C)c1ccc([C@@H](C)N[C@H](C)c2cccc3ccccc23)cc1 [Compound 14L]
activity at […] (33 ng/mL): 78% | activity at […] (330 ng/mL): 109%

SMILES: C[C@@H](NCCc1ccccc1)c1cccc2ccccc12 [Compound 14N]
% activity (33 ng/mL): 55% | % activity (330 ng/mL): 89%
